“Also recorded” adds a separate entry of the source. Each block holds one molecule with its values, some of them ahead of it.
How the values were obtained:
[1] = test system: Plasmodium falciparum 3D7 (chloroquine-sensitive); assay: In vitro drug susceptibility assay, 3D7 strain (flow cytometry, SYBR Green I / MitoTracker Deep Red); assay type: cell-based; conditions: Plasmodium falciparum, 3D7, 72 h, asynchronous parasites, 72 h, 0.1-100 µM; read-out: IC50 ± SD Pf3D7
Experimental: The cultures were maintained under an atmosphere of 5% CO2, 5% O2, and 90% N2. Fresh complete medium was provided daily, and rapid-stained (Panotico) blood smears were examined.
To evaluate the effects of synthetic compounds on the intraerythrocytic development of P. falciparum, we analyzed parasitemia by flow cytometry with 0.3% initial parasitemia and 1% hematocrit in the assay. Plates were incubated with the compounds at concentrations ranging from 0.10 to 100 µM for 72 h. Dual staining with SYBR Green I (SG-I) (Invitrogen, Waltham, MA, USA) and MitoTracker Deep Red (MT-Red) (Invitrogen) were used to label nucleic acids and mitochondria, respectively. Approximately 10,000 cells were counted by an Accuri C6 (Becton Dickinson, San Jose, CA, USA) and analyzed by FlowJo 5 software. Parasitemia was determined from the analysis of dot plots (side scatter versus fluorescence).
We determined the susceptibility of P. falciparum to the indole compounds and investigated whether CQR parasites responded differently to the compounds. […] We determined the IC50 values for each compound by analyzing viable and non-viable parasites after compound treatment, represented in dot plots (Figure 1H).

Cytotoxicity assay (MTT) = assay type: cell-based, human; conditions: human, HEK293T (HEK293) cells, 0.10-100 µM, read-out: CC50 ± SD HEK293
Experimental: (§1) HEK293T (human embryonic kidney) cells were cultured in 75 cm^2 vented tissue culture flasks (Greiner Bio-One, Frickenhausen, Germany) at 37 °C in a humidified atmosphere containing 5% CO2 in Dulbecco’s modified […] (Gibco) supplemented with 10% (v/v) fetal bovine serum (Gibco), 100 U/mL penicillin, and 100 μg/mL streptomycin (Sigma). Cytotoxicity was evaluated with the 4,5-dimethylthiazol-2-yl-2,5-diphenyltetrazolium bromide (MTT) cell proliferation assay. Briefly, 10^4 cells/well were seeded in flat-bottom 96-well plates in complete DMEM medium for 24 h, followed by incubation with different concentrations of each compound (0.10–100 µM) for 72 h. DMSO (0.13%) and digitonin were used as the negative and positive controls, respectively. The concentrations of DMSO chosen as control were the concentration present in the tested compounds (from 0.0001% to 0.12%, two-fold dilution). After 72 h, cells were then incubated with the MTT reagent for 3 h, and absorbance was measured at 570 nm using a FlexStation® 3 Multi-Mode Microplate Reader (Molecular Devices, Sunnyvale, CA, USA). Moreover, we calculated the selectivity indexes (SI) to understand whether the compounds were more toxic to parasites than cells, or vice versa, according to the ratio of the CC50 value to the IC50 value for each compound.
(§2) We further assessed the toxicity of 2-sulfenylindole compounds against HEK293 cells using the MTT assay with different concentrations of the compounds for 72 h. Table 1 presents all the toxicity data and summarizes the IC50 values of the compounds evaluated in this study for Dd2 and 3D7 strains.

HEK293 cell line = assay: Cytotoxicity assay (MTT); assay type: cell-based, human; conditions: 72 h
Experimental: as §1, §2

[2] = test system: P. falciparum 3D7 parasites; assay: Effects of indole derivatives (500 nM) on parasitemia; assay type: cell-based, Plasmodium falciparum; conditions: for Parasitemia (%), melatonin alone: normalized to DMSO control (100.6%), compound-alone experiment
Experimental: (§3) To evaluate the role of the compounds in parasitemia, 1% 3D7 parasites in 2% hematocrit were incubated for 48 h with 500 nM of the 2-sulfenylindole derivatives. Melatonin (100 nM) was used as a positive control, and DMSO (0.0013% v/v) was used as a negative control. The concentration of DMSO chosen as control was the concentration present in the tested compounds at 500 nM. The activity of the compounds was measured by SG-I and MT-Red staining. The data obtained were normalized to those of the control (DMSO). Additionally, to test the ability of the compounds to affect melatonin activity in parasitemia, 3D7 parasites were incubated with 500 nM indole compounds along with 100 nM melatonin for 48 h.
After incubation, the final parasitemia was determined using flow cytometry.

[3] = test system: P. falciparum 3D7 parasites; assay: Effect of 2-sulfenylindoles in combination with 100 nM melatonin on parasitemia; assay type: cell-based, Plasmodium falciparum; conditions: 3D7, 48 h; for Parasitemia (%), melatonin alone: 100 nM melatonin only, normalized to DMSO control (100.7%), combination experiment
Experimental: as §3
Following the assumption that compounds resembling melatonin structure might interact through the melatonin signaling pathways, we evaluated the effect of the compounds on melatonin action on parasitemia. Our next step was to study the combination of 2-sulfenylindoles with melatonin in asynchronous 3D7 by incubating parasites simultaneously with 100 nM melatonin and 500 nM of each compound.

P. falciparum 3D7 strain = assay: Blood-stage development evaluation by microscopy; assay type: cell-based, Plasmodium falciparum
Experimental: Ring-stage parasites (10–14 h) at 1% parasitemia in 2% hematocrit were treated with compound 20 and compound 28 at concentrations of 1 and 30 µM in 24-well plates for 48 h. Treatment with chloroquine (20 nM) and DMSO (0.1%) was used as positive and negative controls. Smears were rapid stained (Panotico) every 12 h after treatment (12, 24, 36, 48, and 60 h time points), and we took images of parasites to assess the blood-stage development (Zeiss, Oberkochen, Germany).
During monitoring, parasites continued to develop throughout the cycle in the presence of both compounds. […] To examine its stage specificity, we monitored development every 12 h.
Figure 5 Parasitemia reduction with compound 20 (A) and compound 28 (B) to determine the stage activity. Data are means ± SD. Ring-stage synchronized parasites with sorbitol 5% were treated with chloroquine (20 nM), compound 20 (30 µM), and compound 28 (30 µM). The chosen treatment concentration was the IC50 values obtained for these compounds against the 3D7 parasites. (C) After drug administration, smears of P. falciparum 3D7 strain were taken at 0, 12, 24, 36, 48, and 60 h after drug administration, observing the growth development of treated parasites. * p ≤ 0.05, ** p ≤ 0.01, *** p ≤ 0.001.

[4] = test system: CDPKs, PKG, and its accessory genes; assay: Real-time PCR of CDPKs, PKG and accessory genes after melatonin treatment; assay type: cell-based, Plasmodium falciparum
Experimental: P. falciparum trophozoites (approximately 30–34 h post invasion) were treated with 100 nM and 1 µM melatonin (SIGMA-Aldrich, Burlington, MA, USA). RNA was extracted with Trizol (Life Technologies, Carlsbad, CA, USA) 1 and 3 h post treatment. cDNA synthesis was carried out using random primers and Superscript IV reverse transcriptase (Life Technologies) according to the manufacturer’s protocol. Oligonucleotides used are listed in Supplementary Table S1. SYBR Green incorporation was measured during PCR amplification performed on the 7300 Real-Time PCR System (Applied Biosystems, Foster City, CA, USA). The statistical analysis was performed by applying Student’s t-test on the log2 values of relative expression (delta delta Ct method) of the genes (normalized with the seryl t-RNA synthase housekeeping gene).
Previous studies have shown that melatonin alters the expression of the ubiquitin/proteasome system, mitochondrial FIS1, DYN2 [27], and nuclear PfMORC [28]. These findings lead us to investigate the effect of melatonin on kinases, phosphodiesterase, and cyclase for two reasons; first, kinases and their components are required for rupturing the parasites to facilitate egress in both asexual and sexual stages. […] We treated the late-stage trophozoite with two different melatonin concentrations (100 nM and 1 µM) for two time points (1 and 3 h). […] It is possible that melatonin may act upstream of PKG and modulates cytosolic calcium, but this hypothesis requires more experimental validation.
Figure 6 Differential transcription of CDPKs, PKG, and its accessory genes from parasites treated with melatonin for 1 and 3 h. Sorbitol synchronized parasites were treated with melatonin, and RNA samples were extracted, purified, and transcript level was investigated by RT-qPCR. Expression of genes has been normalized by housekeeping seryl-tRNA Synthetase expression for (A) 100 nM melatonin for 1 h; (B) 100 nM melatonin for 3 h; (C) 1 μM melatonin for 1 h; and (D) 1 μM melatonin for 3 h. […]

IC50 [1]: 28.8 ± 4.86 µM
Structure (SMILES): COC(=O)Cc1c(SCCCCCCCCCCC(=O)O)[nH]c2ccccc12 [Compound 20]
CC50 at 72 h (Cytotoxicity assay (MTT)): > 100 µM | cytotoxic effect against HEK293 cells (in words) (HEK293 cell line): low cytotoxic effect | effect on parasitemia (in words) ([2]; 500 nM compound alone, 3D7 asynchronous, 48 h): led to an increase in parasitemia; also recorded: significantly increase the parasitemia | increase in parasitemia ([2]; 500 nM compound, 3D7, 48 h, compared to DMSO control (100.6%)): 9.1% | activity at 0.5 µM ([2]; Plasmodium falciparum, 3D7, 48 h, normalized to DMSO control, read-out: Parasitemia (%) Treatment with compound (500nM)): 110 ± 4.07% | Parasitemia (%) Treatment with compound (500nM) + Melatonin (100nM) ([3]; normalized to DMSO control): 122.3 ± 3.71% | effect on parasitemia during blood-stage progression (P. falciparum 3D7 strain; 3D7, ring-stage synchronized, 30 µM (IC50), Figure 5A,B): significantly affect parasitemia | stage-specific effect on blood-stage development (P. falciparum 3D7 strain; ring-stage synchronized 3D7, treated at IC50 (30 µM for 20 and 28), monitored every 12 h): affects RBC reinvasion

Structure (SMILES): COc1ccc2[nH]cc(CCNC(C)=O)c2c1 [Melatonin]
rise in parasitemia ([2]; 100 nM melatonin, 3D7, 48 h, from 100.6% (control)): 6.9% | Parasitemia (%), melatonin alone ([2]; 100 nM melatonin, 3D7, 48 h): 107.5 ± 4.32% | Parasitemia (%), melatonin alone ([2]; 100 nM melatonin, 3D7, 48 h, listed as melatonin): 107.5% | Parasitemia (%), melatonin alone [3]: 113.5 ± 2.75% | Parasitemia (%), melatonin alone ([3]; listed as melatonin): 113.5% | change in gene expression ([4]; 100 nM melatonin for 1 h, late-stage trophozoite, CDPK1 and GCα): very minor effect | change in gene expression ([4]; 100 nM melatonin, after 3 h, additional CDPK6, CDPK7, PKG, PDEα, and GCβ): increased expression | change in gene expression ([4]; 1 µM melatonin for 3 h, cGMP-dependent signaling component): most prominent effect

Source: publication PMC9138683, “Decoding the Role of Melatonin Structure on Plasmodium falciparum Human Malaria Parasites Synchronization Using 2-Sulfenylindoles Derivatives” (Biomolecules, 2022)
